{"source": "patent US8269000B2", "about": "“Substituted pyrimidine and triazine compounds” (Gruenenthal GmbH, priority 2008, dated 2012)"}
{"target": "T1, rat B1R (Rattus norvegicus, UniProt P97583)", "T1 construct": "expressed in transfected cells; host or cells: CHO K1 cells", "T1 sequence (P97583 1-337)": "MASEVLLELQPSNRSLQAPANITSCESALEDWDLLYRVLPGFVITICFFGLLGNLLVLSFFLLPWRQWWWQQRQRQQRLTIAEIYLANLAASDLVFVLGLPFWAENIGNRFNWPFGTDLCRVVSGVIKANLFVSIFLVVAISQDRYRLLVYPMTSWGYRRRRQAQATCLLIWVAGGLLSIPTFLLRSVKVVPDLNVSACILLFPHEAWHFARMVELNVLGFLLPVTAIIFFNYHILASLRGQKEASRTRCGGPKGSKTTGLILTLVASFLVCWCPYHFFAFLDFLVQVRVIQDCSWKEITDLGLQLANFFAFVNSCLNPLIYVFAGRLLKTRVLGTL", "experiment": "FLIPR Ca2+ functional study on bradykinin receptor 1 (rB1R CHO K1 cells)", "type": "cell-based", "settings": "% inhibition rat B1R at 10 μM", "outline": "(§1)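 CHO K1 cells stably expressing human or rat B1R were loaded with Fluo-4 and read on FLIPR (ex 488/em 540 nm, peak counts). Test compound (10 μM, or a concentration range for IC50) was added first for % activation versus control agonist; after 10-20 min, EC80 Lys-Des-Arg9-bradykinin (human) or Des-Arg9-bradykinin (rat) was added, giving % inhibition of maximum. n=2-3, N≥2.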", "units": {"% inh. (rat B1R) 10 μM": "%"}}
{"molecule": "COc1cc(C)c(S(=O)(=O)N2CCCCC2COc2ccnc(N3CCC(CCN4CCCCC4)CC3)n2)c(C)c1", "note": "(stereo not drawn) [H_CC-022]", "% inh. (rat B1R) 10 μM": 77}
{"molecule": "COc1cc(C)c(S(=O)(=O)N(C)CCOc2nccc(N3CCC(CCN4CCCCC4)CC3)n2)c(C)c1", "note": "[G_CC-031]", "% inh. (rat B1R) 10 μM": 104}
{"molecule": "4-[[1-[(4-methoxy-2,6-dimethyl-phenyl)sulfonyl]-piperidin-2-yl]-methoxy]-2-(4-pyrazin-2-yloxy-piperidin-1-yl)-pyrimidine [H_CC-080]", "% inh. (rat B1R) 10 μM": 59}
{"molecule": "COc1cc(C)c(S(=O)(=O)N2CCC[C@H]2COc2ccnc(N3CCC(CCN4CCCCC4)CC3)n2)c(C)c1", "note": "[H_CC-026, 4-[[(2S)-1-(4-methoxy-2,6-dimethylphenyl)sulfonyl-2-pyrrlidinyl]methoxy]-2-[4-[2-(1-piperidyl)ethyl]-1-piperidinyl]pyrimidine]", "% inh. (rat B1R) 10 μM": 75}
{"target": "T1, rat B1R", "experiment": "FLIPR Ca2+ functional study on bradykinin receptor 1 (rB1R CHO K1 cells)", "type": "cell-based", "settings": "CHO-K1, % inhibition rat B1R at 10 μM, read-out: % inh. (rat B1R) 10 μM", "outline": "as §1", "units": {"inhibition at 10 µM": "%"}}
{"molecule": "CCCCC1(N(C)C)CCN(c2nccc(OC[C@@H]3CCCN3S(=O)(=O)c3c(C)cc(OC)cc3C)n2)CC1", "note": "[H_CC-068, [4-butyl-1-[4-[[(2S)-1-[(4-methoxy-2,6-dimethyl-phenyl)sulfonyl]-pyrrolidin-2-yl]-methoxy]-pyrimidin-2-yl]-piperidin-4-yl]-dimethyl-amine]", "inhibition at 10 µM": 65}
{"molecule": "COc1cc(C)c(S(=O)(=O)N2CCCCC2COc2nccc(N3CCC4(CC3)C(=O)NCN4c3ccccc3)n2)c(C)c1", "note": "(stereo not drawn) [G_CC-025, 8-[2-[[1-(4-methoxy-2,6-dimethylphenyl)sulfonyl-2-piperidinyl]methoxy]-4-pyrimidinyl]-4-phenyl-2,4,8-triazaspiro[4.5]decan-1-one]", "inhibition at 10 µM": 95}
{"molecule": "COc1cc(C)c(S(=O)(=O)N2CCCC(Oc3ccnc(N(C)CCN4CCC(c5ccccc5)(N5CCCC5)CC4)n3)C2)c(C)c1", "note": "(stereo not drawn) [H_CC-066, [4-[1-[(4-methoxy-2,6-dimethyl-phenyl)sulfonyl]-piperidin-3-yl]oxy-pyrimidin-2-yl]-methyl-[2-(4-phenyl-4-pyrrolidin-1-yl-piperidin-1-yl)-ethyl]amine]", "inhibition at 10 µM": 56}
{"molecule": "COc1cc(C)c(S(=O)(=O)N2CCCCC2COc2nccc(N3CCC(n4c(=O)[nH]c5cc(Cl)ccc54)CC3)n2)c(C)c1", "note": "(stereo not drawn) [G_CC-024, 6-chloro-3-[1-[2-[[1-(4-methoxy-2,6-dimethylphenyl)sulfonyl-2-piperidinyl]methoxy]-4-pyrimidinyl]-4-piperidinyl]-1H-benzimidazol-2-one]", "inhibition at 10 µM": 73}
{"molecule": "COc1cc(C)c(S(=O)(=O)N2CCC[C@H]2COc2nccc(N3CCC(c4nc(-c5ccncc5)no4)CC3)n2)c(C)c1", "note": "[G_CC-085, 5-[1-[2-[[(2S)-1-[(4-methoxy-2,6-dimethyl-phenyl)sulfonyl]-pyrrolidin-2-yl]-methoxy]-pyrimidin-4-yl]-piperidin-4-yl]-3-pyridin-4-yl-[1,2,4]oxadiazole]", "inhibition at 10 µM": 101}
{"molecule": "COc1cc(C)c(S(=O)(=O)N(C)CCOc2nccc(N(C)CCCN3CCC(c4ccccc4)(N(C)C)CC3)n2)c(C)c1", "note": "[G_CC-100, N-[2-[4-[3-(4-dimethylamino-4-phenyl-piperidin-1-yl)-propyl-methyl-amino]-pyrimidin-2-yl]oxy-ethyl]-4-methoxy-N,2,6-trimethyl-benzenesulfonic acid amide]", "inhibition at 10 µM": 89}
{"molecule": "COc1cc(C)c(S(=O)(=O)N2CC(Oc3nccc(N4CCC(O)(c5cccnc5)CC4)n3)C2)c(C)c1", "note": "[G_CC-128, 1-[2-[1-[(4-methoxy-2,6-dimethyl-phenyl)sulfonyl]-azetidin-3-yl]oxy-pyrimidin-4-yl]-4-pyridin-3-yl-piperidin-4-ol]", "inhibition at 10 µM": 57}
{"molecule": "COc1cc(C)c(S(=O)(=O)N2CCC[C@H]2COc2ccnc(N3CCCC3Cc3ccccn3)n2)c(C)c1", "note": "(stereo partly drawn) [H_CC-088, 4-[[(2S)-1-[(4-methoxy-2,6-dimethyl-phenyl)sulfonyl]-pyrrolidin-2-yl]-methoxy]-2-[2-(pyridin-2-yl-methyl)-pyrrolidin-1-yl]-pyrimidine]", "inhibition at 10 µM": 67}
{"molecule": "COc1cc(C)c(S(=O)(=O)N(C)CCOc2nccc(N3CCC(c4cccs4)(N(C)C)CC3)n2)c(C)c1", "note": "[G_CC-118, N-[2-[4-(4-dimethylamino-4-thiophen-2-yl-piperidin-1-yl)-pyrimidin-2-yl]oxy-ethyl]-4-methoxy-N,2,6-trimethyl-benzenesulfonic acid amide]", "inhibition at 10 µM": 86}
{"molecule": "COc1cc(C)c(S(=O)(=O)N2c3ccccc3C[C@H]2COc2ccnc(N3CCN(C)CC3)n2)c(C)c1", "note": "[H_CC-016, (2S)-1-(4-methoxy-2,6-dimethylphenyl)sulfonyl-2-[[2-(4-methyl-1-piperazinyl)-4-pyrimidinyl]oxymethyl]indoline]", "inhibition at 10 µM": 67}
{"molecule": "COc1cc(C)c(S(=O)(=O)N(C)C(COc2ccnc(N3CCN(c4ccncc4)CC3)n2)c2ccccc2)c(C)c1", "note": "(stereo not drawn) [H_CC-036, 4-methoxy-N,2,6-trimethyl-N-[1-phenyl-2-[[2-[4-(4-pyridyl)-1-piperazinyl]-4-pyrimidinyl]oxy]ethyl]benzenesulfonamide]", "inhibition at 10 µM": 71}
{"molecule": "COc1cc(C)c(S(=O)(=O)N2CCCCC2COc2ccnc(N3[C@@H]4CC[C@H]3CC(Oc3ccncc3)C4)n2)c(C)c1", "note": "(stereo partly drawn) [H_CC-050, (1S,5R)-8-[4-[[1-[(4-methoxy-2,6-dimethyl-phenyl)sulfonyl]-piperidin-2-yl]-methoxy]-pyrimidin-2-yl]-3-pyridin-4-yloxy-8-azabicyclo[3.2.1]octane]", "inhibition at 10 µM": 74}
{"molecule": "COc1cc(C)c(S(=O)(=O)N(C)CCOc2nccc(N3CCC(c4ccccc4)(N(C)C)CC3)n2)c(C)c1", "note": "[G_CC-117, N-[2-[4-(4-dimethylamino-4-phenyl-piperidin-1-yl)-pyrimidin-2-yl]oxy-ethyl]-4-methoxy-N,2,6-trimethyl-benzenesulfonic acid amide]", "inhibition at 10 µM": 56}
{"molecule": "COc1cc(C)c(S(=O)(=O)N2CCC[C@H]2COc2ccnc(N3CCC4(CCN(Cc5ccccc5)C4)C3)n2)c(C)c1", "note": "(stereo partly drawn) [H_CC-023, 3-benzyl-7-[4-[[(2S)-1-(4-methoxy-2,6-dimethylphenyl)sulfonyl-2-pyrrolidinyl]methoxy]-2-pyrimidinyl]-3,7-diazaspiro[4.4]nonane]", "inhibition at 10 µM": 76}
{"molecule": "CCCCC1(N(C)C)CCN(c2ccnc(OCC3CCCCN3S(=O)(=O)c3c(C)cc(OC)cc3C)n2)CC1", "note": "(stereo not drawn) [G_CC-069, [4-butyl-1-[2-[[1-[(4-methoxy-2,6-dimethyl-phenyl)sulfonyl]-piperidin-2-yl]-methoxy]-pyrimidin-4-yl]-piperidin-4-yl]-dimethyl-amine]", "inhibition at 10 µM": 102}
{"molecule": "COc1cc(C)c(S(=O)(=O)N(C)CCOc2ccnc(N3CC4CC3CN4Cc3ccncc3)n2)c(C)c1", "note": "(stereo not drawn) [H_CC-034, 4-methoxy-N,2,6-trimethyl-N-[2-[[2-[2-(4-pyridylmethyl)-2,5-diazabicyclo[2.2.1]heptan-5-yl]-4-pyrimidinyl]oxy]ethyl]benzenesulfonamide]", "inhibition at 10 µM": 74}
{"molecule": "COc1cc(C)c(S(=O)(=O)N2CCC[C@H]2COc2nccc(N3CCN(C)CC3)n2)c(C)c1", "note": "[G_CC-015, 2-[[(2S)-1-(4-methoxy-2,6-dimethylphenyl)sulfonyl-2-pyrrolidinyl]methoxy]-4-(4-methyl-1-piperazinyl)pyrimidine]", "inhibition at 10 µM": 83}
{"molecule": "CCCCC1(N(C)C)CCN(CCN(C)c2nccc(OC[C@@H]3CCCN3S(=O)(=O)c3c(C)cc(OC)cc3C)n2)CC1", "note": "[H_CC-056, 2-(4-butyl-4-dimethylamino-piperidin-1-yl)-ethyl-[4-[[(2S)-1-[(4-methoxy-2,6-dimethyl-phenyl)sulfonyl]-pyrrolidin-2-yl]-methoxy]-pyrimidin-2-yl]-methyl-amine]", "inhibition at 10 µM": 98}
{"molecule": "COc1cc(C)c(S(=O)(=O)N2CCCCC2COc2nccc(N3CCCC3Cc3ccccn3)n2)c(C)c1", "note": "(stereo not drawn) [G_CC-081, 2-[[1-[(4-methoxy-2,6-dimethyl-phenyl)sulfonyl]-piperidin-2-yl]-methoxy]-4-[2-(pyridin-2-yl-methyl)-pyrrolidin-1-yl]-pyrimidine]", "inhibition at 10 µM": 88}
{"molecule": "COc1cc(C)c(S(=O)(=O)N2CC(Oc3nccc(N4CCC(c5ccccc5)(N5CCCC5)CC4)n3)C2)c(C)c1", "note": "[G_CC-122, 2-[1-[(4-methoxy-2,6-dimethyl-phenyl)sulfonyl]-azetidin-3-yl]oxy-4-(4-phenyl-4-pyrrolidin-1-yl-piperidin-1-yl)-pyrimidine]", "inhibition at 10 µM": 51}
{"molecule": "COc1cc(C)c(S(=O)(=O)N2CCC[C@H]2COc2ccnc(N3CCC(c4ccccc4)(N(C)C)CC3)n2)c(C)c1", "note": "[H_CC-085, [1-[4-[[(2S)-1-[(4-methoxy-2,6-dimethyl-phenyl)sulfonyl]-pyrrolidin-2-yl]-methoxy]-pyrimidin-2-yl]-4-phenyl-piperidin-4-yl]-dimethyl-amine]", "inhibition at 10 µM": 70}
{"molecule": "COc1cc(C)c(S(=O)(=O)N(C)C(COc2nccc(N3CCC(OCCN4CCCC4)(c4cccnc4)CC3)n2)c2ccccc2)c(C)c1", "note": "(stereo not drawn) [G_CC-062, 4-methoxy-N,2,6-trimethyl-N-[1-phenyl-2-[[4-[4-(3-pyridyl)-4-(2-1-pyrrolidinylethoxy)-1-piperidinyl]-2-pyrimidinyl]oxy]ethyl]benzenesulfonamide]", "inhibition at 10 µM": 78}
{"molecule": "COc1cc(C)c(S(=O)(=O)N2c3ccccc3C[C@H]2COc2nccc(N3CCC(Oc4cnccn4)CC3)n2)c(C)c1", "note": "[G_CC-092, (2S)-1-[(4-methoxy-2,6-dimethyl-phenyl)sulfonyl]-2-[[4-(4-pyrazin-2-yloxy-piperidin-1-yl)-pyrimidin-2-yl]oxy-methyl]-2,3-dihydro-1H-indole]", "inhibition at 10 µM": 85}
